From patent EP4656640A1, “IRAK4 DEGRADER AND USE THEREOF” (Shanghai Qilu Pharmaceutical Research and Development …, priority 2023, dated 2024) come the findings set out here.

Structures are written as SMILES. Read-outs that look alike come from different tables or passages of the source.

For data set [1], the system named is IL-6 secretion. As to the kind of experiment: Inhibition of induced IL-6 secretion in human PBMCs (CBA). The following applies: PBMC. The data set is classed as cell-based. As to the method:
(§1) The effect of PROTAC small molecules on inflammatory factors in PBMCs downstream of IRAK4 induced by TLR and IL-1 was detected based on the CBA (cytometric bead array) method.
(§2) Step 2: The density of PBMCs was adjusted to 1 E6/mL, and 150 µL of PBMCs in 1640 complete medium were seeded into a 96-well plate, followed by incubation at 37°C for 1 hour.
(§3) Step 3: 50 µL of serially diluted small molecule (working concentration: 10000 nM, 1:3 dilution) drugs were inoculated into the plate in a 37°C incubator for 8 hours.
(§4) Step 4: 10 µL of stimulants were added respectively, with final concentrations of 100 ng/mL for LPS, 1 µg/mL for R848, and 100 ng/mL for IL-1β.
(§5) Step 5: CBA assay. The concentrations of IL-6 and TNF-α in the cell culture supernatant were determined using Hu IL-6 CBA Flex Set A7 and Hu TNF- CBA Flex Set D9.
(§6) Step 6: Standard samples were prepared: 2500 pg/mL, 1250 pg/mL,...0. A 1:2 serial dilution was performed to obtain 10 concentrations.
(§7) Step 7: The mixed capture beads were resuspended in capture bead diluent (1:50), and cell culture supernatant (50 µL) was added, followed by incubation at room temperature for 10 minutes.
(§8) Step 8: The detection reagent prepared with detection diluent was added, and the mixture was incubated in the dark at room temperature for 3 hours. At the end of incubation, the samples were washed once with wash buffer and resuspended for detection.
(§9) The concentrations of IL-6 and TNFα were calculated using the standard curve method. Data presentation and IC50 calculation were performed using Prism 8.0.2.

For data set [2], the target named is T1, IRAK4 (Homo sapiens, UniProt Q9NWZ3).
T1 sequence (Q9NWZ3 1-460): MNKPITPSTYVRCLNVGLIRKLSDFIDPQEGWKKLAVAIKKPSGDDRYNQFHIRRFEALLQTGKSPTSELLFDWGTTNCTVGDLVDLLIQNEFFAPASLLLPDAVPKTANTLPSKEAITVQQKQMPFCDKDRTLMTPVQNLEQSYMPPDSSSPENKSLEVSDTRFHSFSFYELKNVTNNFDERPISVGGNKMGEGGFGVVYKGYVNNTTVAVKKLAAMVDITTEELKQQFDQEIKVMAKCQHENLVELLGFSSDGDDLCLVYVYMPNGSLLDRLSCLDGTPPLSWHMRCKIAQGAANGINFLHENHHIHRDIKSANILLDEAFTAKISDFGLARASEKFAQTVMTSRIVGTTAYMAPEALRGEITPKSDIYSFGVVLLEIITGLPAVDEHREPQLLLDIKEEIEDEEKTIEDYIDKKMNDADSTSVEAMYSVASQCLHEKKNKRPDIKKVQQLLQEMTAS
As to the kind of experiment: Degradation of IRAK4 in SU-DHL-2 cells (flow cytometry). The data set is classed as cell-based. More on the design: The degradation level of IRAK4 protein in SU-DHL-2 cell line by the compounds was detected by flow cytometry; endogenous in cells; host or cells: SU-DHL-2; OCI-LY3. The following applies: SU-DHL-2 cells, 24 hours incubation; read-out: SU-DHL-2 DC50.

The subject of data set [3] is TNFα secretion. As to the kind of experiment: Inhibition of induced TNFα secretion in human PBMCs (CBA). The data set is classed as cell-based. The note with it: PBMC. As to the method:
as §1, §2, §3, §4, §5, §6, §7, §8, §9

The target in data set [4] is hERG potassium channel (Homo sapiens, UniProt Q12809). As to the kind of experiment: Inhibition of hERG potassium channel, whole-cell manual patch clamp in CHO-hERG cells. The note with it: @ 1 µM test compound.
Chain of hERG potassium channel (Q12809 whole entry): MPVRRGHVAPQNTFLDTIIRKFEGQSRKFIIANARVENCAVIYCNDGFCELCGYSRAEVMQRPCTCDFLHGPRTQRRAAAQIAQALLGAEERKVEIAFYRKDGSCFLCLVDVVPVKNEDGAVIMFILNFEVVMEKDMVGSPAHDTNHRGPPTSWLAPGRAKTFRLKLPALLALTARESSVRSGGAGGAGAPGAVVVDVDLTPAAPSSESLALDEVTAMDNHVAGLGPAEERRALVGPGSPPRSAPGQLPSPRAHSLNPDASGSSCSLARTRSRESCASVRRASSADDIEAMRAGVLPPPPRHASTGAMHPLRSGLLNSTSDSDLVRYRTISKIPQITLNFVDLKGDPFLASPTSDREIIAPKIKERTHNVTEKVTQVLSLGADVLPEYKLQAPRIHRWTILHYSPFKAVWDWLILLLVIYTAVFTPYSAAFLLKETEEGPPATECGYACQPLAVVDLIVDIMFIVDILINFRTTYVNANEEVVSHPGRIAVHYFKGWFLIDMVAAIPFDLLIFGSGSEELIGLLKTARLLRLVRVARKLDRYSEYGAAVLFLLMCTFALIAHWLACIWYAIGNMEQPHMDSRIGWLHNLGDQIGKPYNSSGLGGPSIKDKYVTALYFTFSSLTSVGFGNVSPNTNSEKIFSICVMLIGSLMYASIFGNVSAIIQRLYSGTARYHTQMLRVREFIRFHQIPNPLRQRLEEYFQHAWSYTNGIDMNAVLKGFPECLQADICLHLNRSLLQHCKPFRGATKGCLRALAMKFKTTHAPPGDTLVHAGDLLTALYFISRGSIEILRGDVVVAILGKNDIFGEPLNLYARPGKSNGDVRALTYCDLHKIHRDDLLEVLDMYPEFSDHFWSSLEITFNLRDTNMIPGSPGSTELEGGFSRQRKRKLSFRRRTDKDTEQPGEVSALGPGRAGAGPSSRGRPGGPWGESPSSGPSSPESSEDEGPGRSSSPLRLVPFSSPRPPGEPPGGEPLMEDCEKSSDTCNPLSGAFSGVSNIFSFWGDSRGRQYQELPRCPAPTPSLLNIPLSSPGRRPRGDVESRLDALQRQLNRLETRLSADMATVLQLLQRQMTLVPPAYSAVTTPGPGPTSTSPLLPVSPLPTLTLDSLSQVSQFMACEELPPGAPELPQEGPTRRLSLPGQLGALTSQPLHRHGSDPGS
Method: The effects of compounds on hERG potassium channel (human Ether-a-go-go Related Gene potassium channel) currents were tested using the whole-cell manual voltage-clamp electrophysiological method.
CHO cells stably expressing hERG were cultured in cell culture dishes with a diameter of 35 mm and incubated at 37°C in a 5% CO2 incubator. The cells were passaged at a ratio of 1:5 every 48 hours. The culture medium was formulated as follows: 90% F12 (Invitrogen), 10% fetal bovine serum (Gibco), 100 g/mL G418 (Invitrogen), and 100 g/mL Hygromycin B (Invitrogen). On the day of the experiment, the cell culture medium was aspirated, and the cells were rinsed once with extracellular solution. […] The digestion solution was aspirated, and the cells were resuspended in extracellular solution and then transferred to experimental dishes for electrophysiological recording for later use.
On the day of testing, the compounds were prepared as 10 mM stock solutions in DMSO, then diluted to 1 mM with DMSO, and further diluted 1000-fold with extracellular solution to obtain the desired final test concentration.
hERG potassium channel currents were recorded at room temperature using the whole-cell patch-clamp technique in CHO cells stably expressing the hERG channel. The glass microelectrode was prepared by pulling the glass electrode blank (BF150-86-10, Sutter) with a puller, and the tip resistance after filling with the internal electrode solution was about 2-5 MΩ. The glass microelectrode was inserted into the amplifier probe and then connected to the patch-clamp amplifier. The clamping voltage and data recording were controlled and recorded by pClamp software via a computer, with a sampling frequency of 10 kHz and a filtering frequency of 2 kHz. After obtaining the whole-cell recording, cells were clamped at -100 mV. The hERG potassium current (IhERG) was evoked by applying a 2 s depolarizing voltage step from -100 mV to +20 mV, followed by repolarization to -50 mV for 1 s before returning to -100 mV. […]
Data were analyzed and processed using pClamp, GraphPad Prism 8 and Excel software. […]
The target of data set [5] is T1, IRAK4. As to the kind of experiment: Degradation of IRAK4 in monocytes of human PBMCs (flow cytometry). The data set is classed as cell-based. Also on record: endogenous in cells. The following applies: human PBMC monocytes, 24 hours incubation. As to the method: The degradation level of IRAK4 in monocytes of human peripheral blood mononuclear cells (hPBMCs) was detected by flow cytometry.
On day 1, the cells were seeded at a density of 2 × 10^5 cells per well in 100 µL in a 96-well plate.
The compounds were dissolved in DMSO to a final concentration of 10 mM, and then diluted with culture medium at a 1:5 concentration gradient to prepare 10 concentrations. The diluted solutions were added to the cells to obtain a maximum final concentration of 2 µM. Wells containing cells treated with 0.1% DMSO served as the positive control
The cells were incubated at 37°C in a 5% CO2 incubator for 24 hours.
The cells were stained for viability discrimination using the LIVE/DEAD™ Fixable Blue Dead Cell Stain Kit, and surface staining of monocytes was performed with PE Mouse Anti-Human CD14, followed by incubation at 4°C for 30 minutes.
Fix buffer I, equal in volume to the cultured cells, was added, and the cells were fixed at 37°C for 10 minutes.
150 µL of Perm III reagent was added, and the cells were incubated at 4°C for 30 minutes to permeabilize the membranes.
Flow cytometry analysis was performed using a flow cytometer.
The flow cytometry data were analyzed using Flowjo software. Data presentation and DC50 calculation were performed using Prism 8.0.2 (GraphPad).
(Flow cytometry measures light scatter and fluorescence of single cells or particles in a stream.)

[6] abbreviates: IL-1β 100 ng/mL, read-out: IC50 of compounds against induced secretion, IL-6, IL-1β.
[7] abbreviates: LPS 100 ng/mL, read-out: IC50 of compounds against induced secretion, IL-6, LPS.
Where [8] appears, read: R848 1 µg/mL, read-out: IC50 of compounds against induced secretion, IL-6, R848.
Where [9] appears, read: IL-1β 100 ng/mL, read-out: IC50, TNFα secretion induced by IL-1β.
Where [10] appears, read: LPS 100 ng/mL, read-out: IC50, TNFα secretion induced by LPS.
The mark [11] stands for this setting: R848 1 µg/mL, read-out: IC50, TNFα secretion induced by R848.

For `Cn1c(=O)n(C2CCC(=O)NC2=O)c2cccc(C#CCCN3CCC4(CC3)CC(n3cc(NC(=O)c5cnn6ccc(N7C[C@H]8C[C@@H]7CO8)nc56)c(C(F)F)n3)C4)c21` (stereo partly drawn) [Example 22], the IC50 (in general, the concentration needed to halve the response being measured) amounted to 1 nM in data set [1] (setting [6]); 0.5 nM in data set [1] (setting [7]); 0.16 nM in data set [1] (setting [8]); 0.16 nM in data set [3] (setting [9]); 1.2 nM in data set [3] (setting [10]); 1.4 nM in data set [3] (setting [11]). Also, the values for the 50% degradation concentration (DC50) in data set [2] and in data set [5] were 1.4 nM and 0.13 nM, respectively. In addition, in data set [4], the “hERG (inhibition%)” value was 36% @ 1 µM.

`Cn1c(=O)n(C2CCC(=O)NC2=O)c2cccc(C#CCOC34CCC(CN5CCC6(CC5)CC(n5cc(NC(=O)c7cnn8ccc(N9C[C@H]%10C[C@@H]9CO%10)nc78)c(C(F)F)n5)C6)(CC3)CC4)c21` (stereo partly drawn) [Example 52]: the half-maximal inhibitory concentration (IC50) is 8.9 nM in data set [1] (setting [6]); 8.4 nM in data set [1] (setting [7]); 20.3 nM in data set [1] (setting [8]); 13.9 nM in data set [3] (setting [9]); 8.5 nM in data set [3] (setting [10]); 21.5 nM in data set [3] (setting [11]). The DC50 (commonly the midpoint of the concentration-degradation curve) is 3 nM in data set [2] and 0.65 nM in data set [5]. Moreover, the “hERG (inhibition%)” value in data set [4] came out at 16% @ 1 µM.
